Test results as given in BindingDB's records for doi:10.1021/acsmedchemlett.3c00236 (Smith, Gambrell & Russell, 2023).

Experiment: Inhibition of NLRP3 in human THP-1 cells assessed as reduction in pyroptosis preincubated for 3 hrs followed by nigericin addition and measured after 1 hr by resazurin dye based microplate reader analysis

## CCN1CCC[C@H](Nc2nc3nc(-c4c(C)cc(Cl)c(F)c4O)ccc3o2)C1
  IC50: 0.6 nM
